# In publication PMC7613515, “Reading and erasing of the phosphonium analogue of trimethyllysine by epigenetic proteins” (Communications Chemistry, 2022):
# Key:
# SGF29TTD (R115–K293) = molecular target: T1, SGF29TTD (R115–K293) (Homo sapiens, UniProt Q96ES7); experiment: ITC, association of histone H3 peptides with SGF29TTD; type: binding
# T1 construct: SGF29TTD (R115–K293); made in house; host or cells: E. coli
# T1 sequence (Q96ES7 115-293): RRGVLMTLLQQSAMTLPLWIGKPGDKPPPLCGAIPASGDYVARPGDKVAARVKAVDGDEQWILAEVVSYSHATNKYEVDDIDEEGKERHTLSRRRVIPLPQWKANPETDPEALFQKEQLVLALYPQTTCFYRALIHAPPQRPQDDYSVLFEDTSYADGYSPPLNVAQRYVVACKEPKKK
# From the text: We investigated the thermodynamics of association of the H3KP4me3 peptide with five representative human reader domains containing either a PHD zinc finger or TTD, i.e. KDM5APHD3 (JARID1A-PHD3, residues M1489–V1641)[10], TAF3PHD (R857–K924)[22], BPTFPHD (L2583–N2751)[23], SGF29TTD (R115–K293)[24] and KDM4ATTD (JMJD2A, Q897-P1011)[25], selected on the basis of their preference for binding Ν^ε-trimethyllysine over other (non)methylation marks (Kme0 < Kme1 < Kme2 < Kme3), and their domain and aromatic cage diversity. The recombinant readers were produced in E. coli following reported procedures. Isothermal titration calorimetric (ITC) analyses were used to determine the dissociation constant (Kd), the Gibbs free energy of binding (ΔG°), the enthalpy of binding (ΔH°), and the entropy of binding (ΔS°). […] (Table 1, Fig. 2, Supplementary Fig. 1).
# The following purified reader domains: TAF3PHD (R857-K924), KDM5APHD3 (JARID1A, M1489-V1641), BPTFPHD (L2583-N2751), KDM4ATTD (JMJD2A, Q897-P1011) and SGF29TTD (R115-K293) were prepared as reported[10],[22]–[26]. The histone lysine demethylase were produced and purified to high purity via reported procedures KDM3A (JMJD1A, T515-S1317)[41], KDM4AJmjC[39] (JMJD2A, M1-L359), KDM4EJmjC (JMJD2E, M1–Q337)[34] and KDM7B[40] (PHF8, M37-N483 [NP_001171]). KDM5DJmjC was produced using an N-terminal hexa-His tagged KDM4D (KDM4DM1-L358) DNA construct, transformed into BL21(DE3) competent cells for recombinant protein production. Colonies were used to inoculate of LB media (50 mL) containing kanamycin (50 µg·mL^−1) and chloramphenicol (34 µg·mL^−1), which was placed in a 37 °C shaker overnight. The starter culture (10 mL) was used to inoculate TB media (6 × 1 L) containing kanamycin (50 µg·mL^−1) in 2 L baffled shaker flasks. After reaching an of OD600 of ~0.8, the temperature was reduced to 18 °C; at OD600 ~0.9 the cells were induced by the IPTG (0.5 mM) addition. After shaking overnight, the culture was centrifuged (5000 rpm, 10 mins), the media was decanted, and the cell pellet was suspended in Lysis Buffer [HEPES (50 mM), NaCl (500 mM), imidazole (20 mM), glycerol (5%) and TCEP (0.5 mM) in water (pH 7.4)]. The suspension was lysed by passaging through a high-pressure cell breaker (Avestin – EmulsiFlex-C5) for three rounds. The lysate was cleared by centrifugation (60 minutes, 36,000 × g, 4 °C), then loaded onto a Ni NTA gravity column. After extensive rinsing of the Ni-NTA gravity column with lysis buffer, the His-tagged protein was eluted in lysis buffer containing 300 mM imidazole. The eluted protein was concentrated and subjected to gel filtration chromatography using an AKTA Xpress system, an S200 16/600 gel filtration column, and GF buffer [HEPES (50 mM), NaCl (150 mM), glycerol (5%) and TCEP (0.5 mM) in water (pH 7.4)]. The protein identity was verified by LC-MS (ESI-TOF) observing a mass of 43759.7 Da, in accord with the predicted mass of 43751.6 Da.
# ITC studies followed a reported procedure. The buffer used corresponded to that used in the final protein purification step. […] Histone peptide titrations were performed with the same reader batches. Solutions of the reader in buffer (25–40 µM) and of the histone H3 peptide (350–600 µM) in buffer were prepared. […] Heats of dilution for histone peptides determined in control experiments were subtracted from the titration binding data. […]
# [1] = cited from earlier work
# From the text: Some JmjC KDMs can also catalyse N-methyl arginine demethylation and with appropriately sized N^ε-substitutions some can catalyse forma ...
# [2] = 25 °C, H3 1-10 peptide, pH 7.5, from 3 to 5 experiments, ± SD
Compound,-TΔS° (SGF29TTD (R115–K293); [2]) [kJ/mol],ΔG° (SGF29TTD (R115–K293); [2]) [kJ/mol],ΔH° (SGF29TTD (R115–K293); [2]) [kJ/mol],binding affinity relative to H3K4me3 (SGF29TTD (R115–K293); SGF29TTD),"bond length (C-P or C-N) ([1]; C-P bond in H3KP4me3, C-N bond in H3K4me3) [Å]",volume difference Δ[^+Pme4-^+Nme4] ([1]; H3KP9me3 compared to H3K9me3) [Å^3]
C[C@H](N)C(=O)N[C@@H](CCCNC(=N)N)C(=O)N[C@H](C(=O)N[C@@H](CCCC[P+](C)(C)C)C(=O)N[C@@H](CCC(N)=O)C(=O)N[C@H](C(=O)N[C@@H](C)C(=O)N[C@@H](CCCNC(=N)N)C(=O)N[C@@H](CCCCN)C(=O)N[C@@H](CO)C(N)=O)[C@@H](C)O)[C@@H](C)O [H3KP4me3],4.18 ± 0.42,-31.8 ± 0.42,-36 ± 0.42,comparable binding affinity for H3K4me3 and H3KP4me3,1.87,–
"ARTKQTAR(KPme3)STGGKA [H3KP9me3, histone H3 residues 1–15 with trimethylphosphonium lysine analogue at position 9]",–,–,–,–,–,10
